# Measured values as given in patent publication US20040132969A1, “Antibodies, peptides, analogs and uses thereof” (priority 2000, published 2004).
# “Also recorded” adds a separate entry of the source.
# Legend:
# [1] = system: Lewis Lung Carcinoma (LLC) cells; assay: Pulmonary tumour metastasis model (Lewis lung carcinoma); assay type: in vivo, C57BL/6J mice; conditions: lung weight / metastatic episodes
# Procedure: In the metastasis model, Lewis Lung Carcinoma (LLC) cells are injected into the tail of the mouse, lodge in the lungs, and grow and spread rapidly.
# In more detail, groups of five C57BL/6J mice were injected with 5×10^4 LLC cells via the tail vein and were subsequently treated intraperitoneally with various concentrations of tested peptides or equal volume of diluent control. The treatment was initiated three days after tumor cell inoculation. Two weeks after the intravenous injection of tumor cells, the mice were sacrificed and necropsied. The lungs were removed, weighed and compared to untreated controls, and to normal lungs without tumors. Results were analyzed for statistical significance using the Student's t-test.
# [2] = system: HUVEC and fibroblasts; assay: Neutral Red cell metabolism cytotoxicity assay; assay type: cell-based, human; conditions: HUVEC and fibroblast monocultures; 72 hours
# Procedure: In order to determine whether the fibrin E analogue peptides WTM33, WTM34, WTM35, WTM36, and WTM37 are cytotoxic when applied to the HUVEC and fibroblasts used in the Angiosys™ angiogenesis assay, these reagents were examined in two different cytotoxicity assays. To simplify performance of these assays and discriminate between fibroblasts and HUVEC, cells were grown in monocultures rather than together and then treated with the experimental reagents as described below.
# A Neutral Red cell metabolism assay was used to determine the cytotoxicity to HUVEC and fibroblasts of the fibrin E analogue peptides. This assay works on the basis of colorimetric measurement of a red dye which, is reported to be taken up into the lysosomes of uninjured cells. Thus the stronger the colour signal obtained from a well of cells, the greater the percentage of cells remaining viable within that well. HUVEC cells were inoculated into wells of 96 wells at a density of 5×10^3 cells per well, in endothelial cell culture medium. Fibroblasts were similarly seeded 5×10^3 cells per well. The cells were incubated for 24 hours under standard conditions to permit adherence and growth, and then treated for 72 hours with fresh medium containing fibrin E peptides over the same range of concentrations used in the Angiosys™ angiogenesis assay. For each concentration of each of the six peptides, four replicate wells of each cell type were treated and then assayed. Following incubation with the test compounds, the medium was removed and replaced with 200 μl per well of fresh medium containing 3.57 mg neutral red per 100 ml. The cells were incubated with this neutral red solution for 3 hours, after which this solution was decanted and replaced with 100 μl 1% formaldehyde/1% CaCl2. This was rapidly decanted and replaced in turn with 200 μl 50% ethanol/1% acetic acid, which was incubated at room temperature for 30 minutes to extract the neutral red from the cells. The plates were then read in a 96 well plate-format spectrophotometer, measuring absorbance at 540 nm. Mean absorbance values from each group of four wells were calculated and expressed as a percentage±standard deviation of the mean value obtained from control wells incubated in the absence of fibrin E analogue peptide.
# [3] = system: FDP induced cell proliferation in the chick CAM; assay: CAM cell proliferation assay in the presence of FDP; assay type: in vivo
# Procedure: Cell proliferation was measured using the chick chorioallantoic membrane (CAM) model as described previously (4, 29, 30).
# Briefly, on day zero, fertile hens' eggs, are placed in an egg incubator 37.5° C. with pointed ends facing downwards. On day 3, using a 2 ml syringe with a 21G needle, 2 ml of albumen is removed and the eggs returned to the incubator. On day 4, each egg is punctured by a needle at the blunt end into the air space. A square of shell is then removed, causing the egg contents to drop into the space left by collapse of the air space at the end of the egg and the withdrawal of albumen. The volume of the space above the dropped CAM is approximately 7 ml. The square opening in the shell is covered with Sellotape (RTM). The eggs then have to be kept level in the incubator without tilting. On day 10, the surviving eggs are organised into groups of preferably no less than 10. Test and control samples are prepared and each egg receives 0.3 ml of sample injected through the Sellotape (RTM) onto the upper surface of the CAM.
# The technique of removal of each CAM is simple but crucial to the rationale of achieving results expressed as total DPM per CAM. By 20 min, methyl-[^3H]thymidine is incorporated only into the CAM which has been directly exposed. Beyond 30 min, [^3H]thymidine becomes detectable in adjacent CAM that is applied to the shell, via uptake from the bloodstream. Each CAM is removed by holding the egg in the palm of one hand, Sellotape window face down, and piercing the side with pointed scissors well above the level of the dropped CAM. Scissors are used to cut round the shell, and the residual yolk and embryo tipped out into a disposal container once the umbilical vessels connecting the embryo to the CAM are cut. […]
# The assay used is based on quantitative measurement of DNA synthesis in the CAM after exposure to control and test substances 18 h after application in liquid form to the whole “dropped” area of each CAM (4,29). […]
sequence,measurement,setting,value
LHADPDLGVLCPTGC [WTM34],effect in metastasis model (in words),[1],striking results
same,"cytotoxicity / cell viability, Neutral Red assay",[2],not cytotoxic; also recorded: no toxicity
same,effect on FDP-induced stimulation of cell proliferation,"[3]; low / lower concentrations of peptide, 5 μM FDPs",significant inhibition of the FDP induced stimulation
same,effect on FDP-induced stimulation of cell proliferation,"[3]; peptide at 4.633 μM and 9.265 μM, 5 μM FDPs",does not appear to affect the FDP-induced stimulation of cell proliferation
same,effect on FDP-induced stimulation of cell proliferation,[3]; peptide in the presence of FDPs (5 μM) / fibrin,some inhibitory effect
